The values that follow come from patent US20070287830A1, “Trisazo Dye, Composition Containing the Same for Anisotropic Dye Film, Anisotropic Dye Film, and Polarizing Element” (Mitsubishi Chemical Corporation, priority 2004, published 2007).

Series [1] in a line: transmission chromaticity and excitation purity of dye aqueous solution under standard illuminant D65. Format: physicochemical. As for the experimental part:
Here the excitation purity is obtained in such a manner that the chromaticity coordinates N of standard illuminant and the chromaticity coordinates C of the obtained dye in the chromaticity diagram are connected with a straight line, and the wavelength corresponding to the intersection point of the extension of the straight line and the spectrum locus is taken as the dominant wavelength, and the excitation purity is calculated from the proportion at the respective points. The chromaticity coordinate C can be obtained in such a manner that the dye is added to water to obtain a dye aqueous solution, the visible light transmittance of the aqueous solution is measured by a spectrophotometer, and the chromaticities x and y in the CIE 1964 supplementary standard […] system under standard illuminant D65 are calculated.
The excitation purity of the dye in the present invention means one measured and calculated with respect to the dye aqueous solution obtained by adding the dye to water and the excitation purity of the anisotropic dye film means one measured and calculated with respect to a film formed by applying a composition for an anisotropic dye film described hereinafter in detail to a substrate. […]

Series [2] is described as follows: degree of polarization of anisotropic dye film formed by wet system film-forming method. Format: physicochemical. From the text: In the following Examples, the degree of polarization was obtained by measuring the transmittance of an anisotropic dye film by a spectrophotometer having an iodine type polarizing element disposed in an incident optical system, followed by calculation in accordance with the following formula: Degree of polarization (P %)={(Ty−Tz)/(Ty+Tz)}×100
Tz: transmittance of a dye film for a polarized light in the absorption axis direction
Ty: transmittance of a dye film for a polarized light in the polarization axis direction
On the other hand, as a substrate, a glass substrate having a polyimide oriented film formed thereon by silk printing (75 mm×25 mm, thickness 1.1 mm, the polyimide oriented film with a polyimide film thickness of about 800 Å preliminarily subjected to rubbing treatment with cotton cloth) was prepared. […]
The transmittance (Tz) of the obtained anisotropic dye film for a polarized light having a plane of vibration in the absorption axis direction in the plane of the dye film and the transmittance (Ty) for a polarized light having a plane of vibration in the polarization axis direction in the plane of the dye film were measured and shown in FIG. 1. […]

As to `COc1cc(N=Nc2c(S(=O)(=O)O)cc3ccc(N=Nc4cc(S(=O)(=O)O)c(N)cc4N)cc3c2O)c(OC)cc1N=Nc1ccc(OC)c(S(=O)(=O)O)c1` [dye No. (1-1)], the “trail of the chromaticity of the aqueous solution at the respective dye concentrations” value in series [1] (C.I.E. chromaticity diagram, 10% (or 5 wt %), 1,000 ppm and 10 ppm) was “passed near the chromaticity (w) of standard illuminant D65”. In series [1] (dye aqueous solution at a concentration of 10%, optical path length 0.01 mm, D65), the “excitation purity (pe)” value came out at 17%. Also, in series [2] (spin coated on rubbed polyimide/glass, from about 500 nm to about 650 nm), the “degree of polarization (P %) (light absorption anisotropy)” value was “at least 80%”. The “degree of polarization (P %)” value in series [2] (vicinity of maximum absorption wavelength, from 550 nm to 600 nm) is “at least 90%”.
